# Literature values, collected in patent US8679052B2, “Method for accurately determining concentrations of diffusible materials” (priority 2009, dated 2014).
# System: red blood cells
# Conditions: red blood cells suspended in buffer; in the first 1-2 minutes
structure (smiles),measurement,value
CC(=O)/N=c1/sc(S(N)(=O)=O)nn1C [methazolamide],decrease of buffer concentration (uptake by red blood cells),50%
